Measurements from patent EP0426075A1, “Benzylpyrrolidine derivatives as dopamine agonists” (SYNTEX (U.S.A.) INC., priority 1989, dated 1991).

Legend:
[1] = system: conscious restrained spontaneously hypertensive rat; test: Spontaneous Hypertensive Rats - antihypertensive activity, conscious restrained, oral; format: in vivo; settings: for Peak decreases, mean blood pressure / Peak decreases, systolic blood pressure / heart rate following administration / duration of action: SHR, oral; for duration of action: blood pressure decrease; for Diastolic Blood Pressure (mm Hg) / Heart Rate (beats/ min) / Mean Blood Pressure (mm Hg) / Systolic Blood Pressure (mm Hg): change from control (XΔ ± SD), n = 4
Procedure: Finally, these compounds were screened for oral antihypertensive activity in the conscious restrained rat. Adult male SHR were instrumented for blood pressure and heart rate measurements under light ether anesthesia. The animals were maintained on a plexiglass restraining board following surgery, and were allowed a 1 hour recovery period prior to the oral administration of the test compounds.
The compounds of this invention were screened for oral antihypertensive activity in the conscious restrained spontaneously hypertensive rat.
Male spontaneously hypertensive rats, SHR/NCrIBr (320-410 g) were fasted overnight. The following morning the left femoral artery and vein of each rat was cannulated under light ether anesthesia. Following surgery, the rats were placed on a rat restraining board and allowed to recover from the effects of the ether for 1 hour. ECG leads were placed on the animal's chest to monitor heart rate. Animals were divided into groups of 4 and dosed with the test compounds.
Blood pressure and heart rate readings were taken at 5 minute intervals for the first 15 minutes and […] thereafter for a duration of 4 hour post-compound administration. Data was evaluated by two- tailed paired t-tests.

[2] = system: saline-loaded spontaneously hypertensive rat (SHR); test: Spontaneous Hypertensive Rat - diuretic activity, saline-loaded, oral; format: in vivo; settings: for Urine K^+ (mEq/sample) / Urine Na^+ (mEq/sample) / Urine Volume: n = 7, mean ± S.D.
Procedure: Additionally, these compounds were examined for diuretic activity for 6 hours following oral compound administration in the saline-loaded spontaneously hypertensive rat (SHR). Methods for this assay have been previously described (Rosenkranz, et al, Proc. West. Pharmacol. Soc. 28 :87, 1985). The diuretic and natriuretic effects elicited by these compounds were characterized by an immediate onset of action.
The compounds of this invention were examined for diuretic activity for 6 hours following oral compound administration in the saline-loaded spontaneously hypertensive rat (SHR). Methods for this assay have been previously described (Rosenkranz, et al, Proc. West. Pharmacol. Soc. 28 :87, 1985). The diuretic and natriuretic effects elicited by these compounds were characterized by an immediate onset of action.
Male spontaneously hypertensive SHR/NCrIBR rats weighing 320-430 gms were divided into four groups of seven animals. All animals were food- and water-deprived overnight. The following morning, each group of rats was hydrated with deionized water (20 ml/kg, po) forty-five minutes prior to the administration of vehicle or the test compounds.
Following vehicle or drug, the rats were placed in individual metabolic units. Fifteen minutes post-dose the animals were saline-loaded (30 ml/kg, po). Urine was collected at 1, 3 and 6 hour intervals post-saline- load. Urine volumes were measured and sodium and potassium levels were determined by flame photometry.
A two-way analysis of variance with time, treatment and their interaction was run as a repeated measures analysis. A secondary model of one-way analysis of variance (by time) was run using specified contrasts. The p-values for the contrasts were adjusted using Fisher's LSD strategy at each time point.

[3] = po 3 mg/kg, cumulative time 1 hr
[4] = po 3 mg/kg, cumulative time 3 hr
[5] = po 3 mg/kg, cumulative time 6 hr
[6] = po 10 mg/kg, cumulative time 1 hr
[7] = po 10 mg/kg, cumulative time 3 hr
[8] = po 10 mg/kg, cumulative time 6 hr
[9] = po 30 mg/kg, cumulative time 1 hr
[10] = po 30 mg/kg, cumulative time 3 hr
[11] = po 30 mg/kg, cumulative time 6 hr

Br.Br.CCCN(CCCCCCN1CCC[C@@H]1Cc1ccc(O)c(O)c1)CCc1cccc(O)c1 [Test Compound 2, (R)-2-(3,4-dihydroxybenzyl)-1-[6-(N-(3-hydroxyphenethyl)-N-propylamino)hexyl]pyrrolidine dihydrobromide]
Peak decreases, mean blood pressure [1]: 17%
Peak decreases, systolic blood pressure [1]: 17%
heart rate following administration [1]: not significantly altered
duration of action [1]: up to 4 hours
Diastolic Blood Pressure (mm Hg) ([1]; po 3 mg/kg, 1 hour): -8 ± 12 mm Hg
Heart Rate (beats/ min) ([1]; po 3 mg/kg, 1 hour): -5 ± 12 beats/ min
Mean Blood Pressure (mm Hg) ([1]; po 3 mg/kg, 1 hour): -12 ± 18 mm Hg
Systolic Blood Pressure (mm Hg) ([1]; po 3 mg/kg, 1 hour): -13 ± 25 mm Hg
Diastolic Blood Pressure (mm Hg) ([1]; po 3 mg/kg, 2 hours): -6 ± 3 mm Hg
Heart Rate (beats/ min) ([1]; po 3 mg/kg, 2 hours): 5 ± 11 beats/ min
Mean Blood Pressure (mm Hg) ([1]; po 3 mg/kg, 2 hours): -7 ± 8 mm Hg
Systolic Blood Pressure (mm Hg) ([1]; po 3 mg/kg, 2 hours): -9 ± 13 mm Hg
Diastolic Blood Pressure (mm Hg) ([1]; po 3 mg/kg, 3 hours): -4 ± 17 mm Hg
Heart Rate (beats/ min) ([1]; po 3 mg/kg, 3 hours): 6 ± 18 beats/ min
Mean Blood Pressure (mm Hg) ([1]; po 3 mg/kg, 3 hours): -8 ± 14 mm Hg
Systolic Blood Pressure (mm Hg) ([1]; po 3 mg/kg, 3 hours): -19 ± 22 mm Hg
Diastolic Blood Pressure (mm Hg) ([1]; po 3 mg/kg, 4 hours): -9 ± 7 mm Hg
Heart Rate (beats/ min) ([1]; po 3 mg/kg, 4 hours): 10 ± 23 beats/ min
Systolic Blood Pressure (mm Hg) ([1]; po 3 mg/kg, 4 hours): -29 ± 19 mm Hg
Diastolic Blood Pressure (mm Hg) ([1]; po 10 mg/kg, 1 hour): -19 ± 3 mm Hg
Heart Rate (beats/ min) ([1]; po 10 mg/kg, 1 hour): -11 ± 6 beats/ min
Mean Blood Pressure (mm Hg) ([1]; po 10 mg/kg, 1 hour): -21 ± 3 mm Hg
Systolic Blood Pressure (mm Hg) ([1]; po 10 mg/kg, 1 hour): -26 ± 6 mm Hg
Diastolic Blood Pressure (mm Hg) ([1]; po 10 mg/kg, 2 hours): -11 ± 21 mm Hg
Heart Rate (beats/ min) ([1]; po 10 mg/kg, 2 hours): -6 ± 8 beats/ min
Mean Blood Pressure (mm Hg) ([1]; po 10 mg/kg, 2 hours): -21 ± 8 mm Hg
Systolic Blood Pressure (mm Hg) ([1]; po 10 mg/kg, 2 hours): -28 ± 10 mm Hg
Diastolic Blood Pressure (mm Hg) ([1]; po 10 mg/kg, 3 hours): -19 ± 8 mm Hg
Heart Rate (beats/ min) ([1]; po 10 mg/kg, 3 hours): -5 ± 11 beats/ min
Mean Blood Pressure (mm Hg) ([1]; po 10 mg/kg, 3 hours): -27 ± 4 mm Hg
Systolic Blood Pressure (mm Hg) ([1]; po 10 mg/kg, 3 hours): -36 ± 23 mm Hg
Diastolic Blood Pressure (mm Hg) ([1]; po 10 mg/kg, 4 hours): -16 ± 7 mm Hg
Heart Rate (beats/ min) ([1]; po 10 mg/kg, 4 hours): 1 ± 3 beats/ min
Mean Blood Pressure (mm Hg) ([1]; po 10 mg/kg, 4 hours): -22 ± 12 mm Hg
Systolic Blood Pressure (mm Hg) ([1]; po 10 mg/kg, 4 hours): -31 ± 20 mm Hg
Diastolic Blood Pressure (mm Hg) ([1]; po 30 mg/kg, 1 hour): -6 ± 5 mm Hg
Heart Rate (beats/ min) ([1]; po 30 mg/kg, 1 hour): -1 ± 10 beats/ min
Mean Blood Pressure (mm Hg) ([1]; po 30 mg/kg, 1 hour): -5 ± 9 mm Hg
Systolic Blood Pressure (mm Hg) ([1]; po 30 mg/kg, 1 hour): -4 ± 14 mm Hg
Diastolic Blood Pressure (mm Hg) ([1]; po 30 mg/kg, 2 hours): -17 ± 6 mm Hg
Heart Rate (beats/ min) ([1]; po 30 mg/kg, 2 hours): 9 ± 10 beats/ min
Mean Blood Pressure (mm Hg) ([1]; po 30 mg/kg, 2 hours): -14 ± 14 mm Hg
Systolic Blood Pressure (mm Hg) ([1]; po 30 mg/kg, 2 hours): -18 ± 10 mm Hg
Diastolic Blood Pressure (mm Hg) ([1]; po 30 mg/kg, 3 hours): -15 ± 5 mm Hg
Heart Rate (beats/ min) ([1]; po 30 mg/kg, 3 hours): 18 ± 15 beats/ min
Mean Blood Pressure (mm Hg) ([1]; po 30 mg/kg, 3 hours): -17 ± 11 mm Hg
Systolic Blood Pressure (mm Hg) ([1]; po 30 mg/kg, 3 hours): -26 ± 17 mm Hg
Diastolic Blood Pressure (mm Hg) ([1]; po 30 mg/kg, 4 hours): -20 ± 9 mm Hg
Heart Rate (beats/ min) ([1]; po 30 mg/kg, 4 hours): 20 ± 16 beats/ min
Systolic Blood Pressure (mm Hg) ([1]; po 30 mg/kg, 4 hours): -32 ± 20 mm Hg
Urine K^+ (mEq/sample) [2, 3]: 0.02±0.01 mEq/sample
Urine Na^+ (mEq/sample) [2, 3]: 0.00±0.00 mEq/sample
Urine Volume [2, 3]: 5.2 ± 1.4 mL
Urine K^+ (mEq/sample) [2, 4]: 0.09±0.04 mEq/sample
Urine Na^+ (mEq/sample) [2, 4]: 0.06±0.04 mEq/sample
Urine Volume [2, 4]: 7.9 ± 0.7 mL
Urine K^+ (mEq/sample) [2, 5]: 0.17±0.05 mEq/sample
Urine Na^+ (mEq/sample) [2, 5]: 0.19±0.07 mEq/sample
Urine Volume [2, 5]: 9.1 ± 0.8 mL
Urine K^+ (mEq/sample) [2, 6]: 0.02±0.01 mEq/sample
Urine Na^+ (mEq/sample) [2, 6]: 0.09±0.05 mEq/sample
Urine Volume [2, 6]: 8.9 ± 1.6 mL
Urine K^+ (mEq/sample) [2, 7]: 0.10±0.06 mEq/sample
Urine Na^+ (mEq/sample) [2, 7]: 0.26±0.12 mEq/sample
Urine Volume [2, 7]: 11.2 ± 2.0 mL
Urine K^+ (mEq/sample) [2, 8]: 0.13±0.09 mEq/sample
Urine Na^+ (mEq/sample) [2, 8]: 0.31±0.17 mEq/sample
Urine Volume [2, 8]: 11.7 ± 2.4 mL
Urine K^+ (mEq/sample) [2, 9]: 0.03±0.02 mEq/sample
Urine Na^+ (mEq/sample) [2, 9]: 0.16±0.05 mEq/sample
Urine Volume [2, 9]: 13.0 ± 2.2 mL
Urine K^+ (mEq/sample) [2, 10]: 0.13±0.07 mEq/sample
Urine Na^+ (mEq/sample) [2, 10]: 0.40±0.12 mEq/sample
Urine Volume [2, 10]: 15.7 ± 2.1 mL
Urine K^+ (mEq/sample) [2, 11]: 0.17±0.09 mEq/sample
Urine Na^+ (mEq/sample) [2, 11]: 1.45±0.12 mEq/sample
Urine Volume [2, 11]: 15.9 ± 2.1 mL

Br.Br.CCCN(CCCCCCN1CCC[C@@H]1Cc1ccc(O)c(O)c1)CCc1ccc(O)cc1 [Test Compound 1, (R)-2-(3,4-dihydroxybenzyl)-1-[6-(N-(4-hydroxyphenethyl)-N-propylamino)hexyl]pyrrolidine dihydrobromide]
Peak decreases, mean blood pressure [1]: about 20%
Peak decreases, systolic blood pressure [1]: about 20%
heart rate following administration [1]: not significantly altered
duration of action [1]: up to 4 hours
kaliuresis ([2]; 30 mg/kg, po, 1, 3, and 6 hour post-dose time points): significant kaliuresis
Urine K^+ (mEq/sample) [2, 3]: 0.03±0.04 mEq/sample
Urine Na^+ (mEq/sample) [2, 3]: 0.02±0.02 mEq/sample
Urine Volume [2, 3]: 4.6 ± 1.9 mL
Urine K^+ (mEq/sample) [2, 4]: 0.11±0.05 mEq/sample
Urine Na^+ (mEq/sample) [2, 4]: 0.07±0.03 mEq/sample
Urine Volume [2, 4]: 7.8 ± 1.4 mL
Urine K^+ (mEq/sample) [2, 5]: 0.20±0.07 mEq/sample
Urine Na^+ (mEq/sample) [2, 5]: 0.25±0.10 mEq/sample
Urine Volume [2, 5]: 9.4 ± 1.8 mL
Urine K^+ (mEq/sample) [2, 6]: 0.06±0.03 mEq/sample
Urine Na^+ (mEq/sample) [2, 6]: 0.28±0.13 mEq/sample
Urine Volume [2, 6]: 9.9 ± 3.6 mL
Urine K^+ (mEq/sample) [2, 7]: 0.16±0.08 mEq/sample
Urine Na^+ (mEq/sample) [2, 7]: 0.51±0.22 mEq/sample
Urine Volume [2, 7]: 11.4 ± 3.9 mL
Urine K^+ (mEq/sample) [2, 8]: 0.22±0.11 mEq/sample
Urine Na^+ (mEq/sample) [2, 8]: 0.51±0.27 mEq/sample
Urine Volume [2, 8]: 11.8 ± 3.9 mL
Urine K^+ (mEq/sample) [2, 9]: 0.07±0.02 mEq/sample
Urine Na^+ (mEq/sample) [2, 9]: 0.61±0.16 mEq/sample
Urine Volume [2, 9]: 14.7 ± 2.3 mL
Urine K^+ (mEq/sample) [2, 10]: 0.24±0.05 mEq/sample
Urine Na^+ (mEq/sample) [2, 10]: 1.13±0.25 mEq/sample
Urine Volume [2, 10]: 18.6 ± 2.8 mL
Urine K^+ (mEq/sample) [2, 11]: 0.31±0.06 mEq/sample
Urine Na^+ (mEq/sample) [2, 11]: 1.31±0.27 mEq/sample
Urine Volume [2, 11]: 19.3 ± 2.7 mL
